Experimental data published in patent publication US20220265817A1, “THERAPEUTIC COMPOSITIONS AND METHODS FOR TREATING HEPATITIS B” (priority 2017, published 2022).
Read-outs that look alike come from different tables or passages of the source.

Experiments:
[1] = test system: D type HBV in primary human hepatocytes (HBeAg); experiment: microbe, parasite or virus in culture; format: cell-based; settings: Hepatitis B virus, Hepatocyte
Protocol: (§1) The mouse liver perfusion was applied to isolate PHHs. The isolated hepatocytes were further purified by Percoll. The cells were resuspended with culture media and seeded into the 96-well plates (6×10^4 cell/well) or 48-well plates (1.2×10^5 cell/well). The PHHs were infected with a D type HBV one day post seeding (day 1).
(§2) On day 2, the test compounds were diluted and added into the cell culture plates. The culture media containing the compounds were refreshed every other day. The cell culture supernatants were collected on day 8 for the HBV DNA and antigen determinations.
(§3) The compounds were tested at 7 concentrations, 3-fold dilution, in triplicate.
(§4) Two compounds were tested at 5×5 matrix, in triplicate plates.
(§5) HBsAg/HBeAg in the culture supernatants harvested on days 8 were measured by the HBsAg/HBeAg ELISA kit (Autobio) according to the manual. The samples were diluted with PBS to get the signal in the range of the standard curve. The inhibition rates were calculated with the formula below. The combination effect was analyzed by the MacSynergy software.
% Inh. HBeAg=[1-HBeAg quantity of sample/HBV quantity of DMSO control]×100.

[2] = test system: D type HBV in primary human hepatocytes (HBsAg); experiment: microbe, parasite or virus in culture; format: cell-based; settings: Hepatitis B virus, Hepatocyte
Protocol: as §1, §2, §3, §4, §5
% Inh. HBsAg=[1-HBsAg quantity of sample/HBV quantity of DMSO control]×100.

[3] = read-out: AVERAGE % INHIBITION, IFNα2a 0.00 IU/mL, COMPOUND 22 61.73 μM
[4] = read-out: AVERAGE % INHIBITION, IFNα2a 0.00 IU/mL, COMPOUND 22 185.19 μM
[5] = read-out: AVERAGE % INHIBITION, IFNα2a 0.00 IU/mL, COMPOUND 22 555.56 μM
[6] = read-out: AVERAGE % INHIBITION, IFNα2a 0.00 IU/mL, COMPOUND 22 1666.67 μM
[7] = read-out: AVERAGE % INHIBITION, IFNα2a 0.00 IU/mL, COMPOUND 22 5000.00 μM

Question: For `O=C(Nc1ccc(F)c(F)c1)c1cc(S(=O)(=O)NC2CCCC2)ccc1F` [Compound 22], which inhibition at 0.06173 µM ([1]; read-out: AVERAGE % INHIBITION HBeAg, COMPOUND 22 61.73 nM alone) is on record?
Answer: Its inhibition at 0.06173 µM is -16.8%.

Question: What about the inhibition at 0.18519 µM ([1]; read-out: AVERAGE % INHIBITION HBeAg, COMPOUND 22 185.19 nM alone) of the same compound?
Answer: The inhibition at 0.18519 µM was -14.6%.

Question: What about the inhibition at 0.55556 µM ([1]; read-out: AVERAGE % INHIBITION HBeAg, COMPOUND 22 555.56 nM alone) of the same compound?
Answer: Its inhibition at 0.55556 µM is -7.23%.

Question: What about the inhibition at 1.66667 µM ([1]; read-out: AVERAGE % INHIBITION HBeAg, COMPOUND 22 1666.67 nM alone) of the same compound?
Answer: Its inhibition at 1.66667 µM is 8.5%.

Question: What about the inhibition at 5 µM ([1]; read-out: AVERAGE % INHIBITION HBeAg, COMPOUND 22 5000.00 nM alone) of the same compound?
Answer: The inhibition at 5 µM was 21.7%.

Question: What about the inhibition at 61.73 µM [1, 3] of the same compound?
Answer: Its inhibition at 61.73 µM is -7.2%.

Question: What about the inhibition at 185.19 µM [1, 4] of the same compound?
Answer: Its inhibition at 185.19 µM is -9.57%.

Question: And the inhibition at 555.56 µM [1, 5]?
Answer: The inhibition at 555.56 µM was -8.17%.

Question: And the inhibition at 1666.67 µM [1, 6]?
Answer: The inhibition at 1666.67 µM was 5.92%.

Question: And the inhibition at 5000 µM [1, 7]?
Answer: The inhibition at 5000 µM was 20.9%.

Question: What about the inhibition at 0.061728 µM ([1]; read-out: AVERAGE % INHIBITION, TAF 0.00 nM, COMPOUND 22 61.728 nM) of the same compound?
Answer: The inhibition at 0.061728 µM was -6.71%.

Question: What about the inhibition at 0.18519 µM ([1]; read-out: AVERAGE % INHIBITION, TAF 0.00 nM, COMPOUND 22 185.19 nM) of the same compound?
Answer: Its inhibition at 0.18519 µM is -12.4%.

Question: And the inhibition at 0.55556 µM ([1]; read-out: AVERAGE % INHIBITION, TAF 0.00 nM, COMPOUND 22 555.56 nM)?
Answer: Its inhibition at 0.55556 µM is -5.06%.

Question: And the inhibition at 1.6667 µM ([1]; read-out: AVERAGE % INHIBITION, TAF 0.00 nM, COMPOUND 22 1666.7 nM)?
Answer: Its inhibition at 1.6667 µM is 10.1%.

Question: And the inhibition at 5 µM ([1]; read-out: AVERAGE % INHIBITION, TAF 0.00 nM, COMPOUND 22 5000 nM)?
Answer: The inhibition at 5 µM was 29.7%.

Question: And the EC50 ([1]; read-out: Inhibitor B EC50 HBeAg)?
Answer: Its EC50 is 10.7 µM.

Question: And the EC50 ([1]; read-out: Inhibitor EC50)?
Answer: Its EC50 is 10.7 µM.

Question: What about the inhibition at 0.06173 µM ([2]; read-out: AVERAGE % INHIBITION HBsAg, COMPOUND 22 61.73 nM alone) of the same compound?
Answer: The inhibition at 0.06173 µM was -9.16%.

Question: And the inhibition at 0.18519 µM ([2]; read-out: AVERAGE % INHIBITION HBsAg, COMPOUND 22 185.19 nM alone)?
Answer: The inhibition at 0.18519 µM was -10.2%.

Question: What about the inhibition at 0.55556 µM ([2]; read-out: AVERAGE % INHIBITION HBsAg, COMPOUND 22 555.56 nM alone) of the same compound?
Answer: The inhibition at 0.55556 µM was -3.82%.

Question: And the inhibition at 1.66667 µM ([2]; read-out: AVERAGE % INHIBITION HBsAg, COMPOUND 22 1666.67 nM alone)?
Answer: Its inhibition at 1.66667 µM is 20.6%.

Question: And the inhibition at 5 µM ([2]; read-out: AVERAGE % INHIBITION HBsAg, COMPOUND 22 5000.00 nM alone)?
Answer: The inhibition at 5 µM was 31%.

Question: What about the inhibition at 61.73 µM [2, 3] of the same compound?
Answer: The inhibition at 61.73 µM was -13.8%.

Question: What about the inhibition at 185.19 µM [2, 4] of the same compound?
Answer: Its inhibition at 185.19 µM is -10.6%.

Question: And the inhibition at 555.56 µM [2, 5]?
Answer: The inhibition at 555.56 µM was -5.08%.

Question: And the inhibition at 1666.67 µM [2, 6]?
Answer: Its inhibition at 1666.67 µM is 10.3%.

Question: And the inhibition at 5000 µM [2, 7]?
Answer: The inhibition at 5000 µM was 23.1%.

Question: What about the inhibition at 0.061728 µM ([2]; read-out: AVERAGE % INHIBITION, TAF 0 nM, COMPOUND 22 61.728 nM) of the same compound?
Answer: Its inhibition at 0.061728 µM is -0.32%.

Question: And the inhibition at 0.18519 µM ([2]; read-out: AVERAGE % INHIBITION, TAF 0 nM, COMPOUND 22 185.19 nM)?
Answer: The inhibition at 0.18519 µM was 2.37%.

Question: And the inhibition at 0.55556 µM ([2]; read-out: AVERAGE % INHIBITION, TAF 0 nM, COMPOUND 22 555.56 nM)?
Answer: The inhibition at 0.55556 µM was -2.17%.

Question: And the inhibition at 1.6667 µM ([2]; read-out: AVERAGE % INHIBITION, TAF 0 nM, COMPOUND 22 1666.7 nM)?
Answer: Its inhibition at 1.6667 µM is 17.7%.

Question: And the inhibition at 5 µM ([2]; read-out: AVERAGE % INHIBITION, TAF 0 nM, COMPOUND 22 5000 nM)?
Answer: Its inhibition at 5 µM is 20.7%.

Question: What about the EC50 ([2]; read-out: Inhibitor B EC50 HBsAg) of the same compound?
Answer: The EC50 was 12.8 µM.

Question: And the EC50 ([2]; read-out: Inhibitor EC50)?
Answer: Its EC50 is 12.8 µM.
